Paper PMC11003481, “Synthesis, biological evaluation, and computational studies of N-benzyl pyridinium–curcumin derivatives as potent AChE inhibitors with antioxidant activity” (Journal of Enzyme Inhibition and Medicinal Chemistry, 2023)

Legend:
[1] = biological target: T1, butyrylcholinesterase (eqBChE, from equine serum) (Equus caballus, UniProt P81908); assay: biochemical; conditions: mean ± SEM of three independent experiments, duplicate samples, read-out: IC50 ± SEM BChE
T1 construct: butyrylcholinesterase (eqBChE, from equine serum); from tissue; host or cells: equine serum
Protocol: (§1) The AChE and BChE inhibitory activity assays were performed using a BioTek Epoch 2 microplate spectrophotometer in clear, flat-bottom 96-well plates. […] To each well, 295 µL phosphate buffer pH 8.0, 10 µL enzyme solution (AChE/BChE), and 10 µL target compound solutions were added together and allowed to stand for 4 min at room temperature. Then, 10 µL of 0.01 M solution freshly prepared Ellman’s reagent 5,5′-dithiobis(2-nitrobenzoic acid) (DTNB) was added to each well. The reaction in the wells was started by the addition of 2 µL of 0.075 M solution freshly prepared substrate (ATCh (acetylthiocholine iodide)/BTCh (S-butyrylthiocholine iodide)) solution. The solution was mixed immediately and incubated for 2:30 min for AChE or for 5 min for BChE inside the microplate reader at 26 °C. […] The IC50 values were calculated graphically by nonlinear regression analysis of inhibition curves that were obtained by plotting the logarithm of the inhibitor concentrations versus the percentage of inhibition (log(inhibitor) vs. normalised response) using GraphPad Prism 8 software (See Supplementary Information for details).

[2] = biological target: acetylcholinesterase (eeAChE, from Electrophorus electricus) (Electrophorus electricus, UniProt O42275); assay: biochemical; conditions: for IC50: eeAChE, mean ± SEM of three independent experiments, duplicate samples, read-out: IC50 ± SEM AChE; for Selectivity Index (SI) (AChE): Selectivity ratio [IC50(BChE)/IC50(AChE)]
Protocol: as §1

eeAChE = eeAChE (Electrophorus electricus, UniProt O42275); assay: biochemical; format: biochemical; conditions: from slopes of Lineweaver-Burk plots versus inhibitor concentration; substrate ATCh; read-out: Ki ± SEM eeAChE
Protocol: The slopes of the Lineweaver-Burk reciprocal plots against the concentrations of the compound (inhibitor) were plotted to obtain the Ki values for the prepared compounds (Table 1). The value at which the line intersects the x-axis is -Ki.
The assay was performed in triplicate using different inhibitor concentrations. […] The assay was carried out in clear, flat-bottom 96-well plates, to which 5 µL distilled water was added to all wells of columns 2–3, rows B-F. Then, 5 µL of the lowest concentration of inhibitor solution was added to the wells of columns 4–5, 5 µL of the median concentration of inhibitor solution was added to the wells of columns 6–7, and 5 µL of the highest concentration of inhibitor solution was added to the wells of columns 8–9. Next, 275 μL enzyme solution was added to the wells, and the plates were incubated for 4 min. Then, 10 μL 2.5 mM DTNB was added to the wells, followed by 10 μL of 32, 16, 8, 4, or 2 mM ATCh solutions to initiate the reactions. The plates were placed in a microplate reader for direct kinetic measurements.
The inhibition constant (Ki) for each inhibitor was calculated by averaging the ATCh hydrolysis rates from three independent experiments. Using GraphPad Prism 8 software, nonlinear regression was used to calculate the Km and Vmax values of the Michaelis-Menten kinetics by plotting [substrate] versus velocity. For the Lineweaver-Burk plots, linear regression was used to plot [1/ATCh] versus […]. Finally, the Ki values were obtained by plotting the slopes against [inhibitor] [20].

[3] = ABTS radical cation decolorisation antioxidant assay
Protocol: The antioxidant activity was determined using a radical cation (ABTS^.+) decolorisation assay, as described by Xiao et al.[21] with a few modifications. The assay used a BioTek Epoch 2 microplate spectrophotometer (Agilent, USA) with clear, flat-bottom 96-well plates. The 7 mmol/L ABTS^.+ stock solution was prepared by dissolving 96.02 mg ABTS in acetic acid buffer (pH 4.5) and to a final volume of 25 ml, which was kept in the dark at 0–4 °C. A 2.45 mmol/L potassium persulfate (K2S2O8) stock solution was prepared by dissolving 66.24 mg K2S2O8 in acetic acid buffer solution with pH 4.5, and then diluted to 100 ml and kept in the dark at 0–4 °C. The ABTS working solution was prepared by mixing similar quantities of 7 mmol/L ABTS and 2.45 mmol/L K2S2O8. This solution was stored in a dark cabinet for 16 h before use, when it was diluted with distilled water to obtain an absorbance of 0.70 at 734 nm. In a clear, flat-bottom 96-well plate, 200 μL of ABTS working solution and 10.0 μL sample solution at different concentrations (0.0312–0.5 mg/mL) were mixed well and incubated in the dark for 7 min before the absorbance was measured at 734 nm using a microplate reader. A blank was run for each assay, and all measurements were performed after 7 min. The ABTS scavenging capacity of inhibitors was compared with that of trolox and α-tocopherol. […]

T1 sequence (P81908 whole entry): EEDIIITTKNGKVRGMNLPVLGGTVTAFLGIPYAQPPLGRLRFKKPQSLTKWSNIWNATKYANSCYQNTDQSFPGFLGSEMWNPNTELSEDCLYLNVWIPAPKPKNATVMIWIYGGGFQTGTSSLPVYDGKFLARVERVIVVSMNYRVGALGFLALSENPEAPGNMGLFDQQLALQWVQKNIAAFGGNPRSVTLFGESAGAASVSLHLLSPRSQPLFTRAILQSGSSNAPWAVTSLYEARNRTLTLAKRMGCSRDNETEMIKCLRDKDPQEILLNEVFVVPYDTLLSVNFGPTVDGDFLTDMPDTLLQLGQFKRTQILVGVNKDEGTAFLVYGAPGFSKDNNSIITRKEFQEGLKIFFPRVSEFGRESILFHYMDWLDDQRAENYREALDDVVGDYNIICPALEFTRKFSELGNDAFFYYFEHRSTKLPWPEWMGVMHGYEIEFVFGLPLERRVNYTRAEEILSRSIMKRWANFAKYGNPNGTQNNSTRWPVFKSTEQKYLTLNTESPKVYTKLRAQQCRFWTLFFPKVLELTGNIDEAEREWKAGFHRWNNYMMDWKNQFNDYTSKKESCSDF
acetylcholinesterase (eeAChE, from Electrophorus electricus), sequence (O42275 24-633): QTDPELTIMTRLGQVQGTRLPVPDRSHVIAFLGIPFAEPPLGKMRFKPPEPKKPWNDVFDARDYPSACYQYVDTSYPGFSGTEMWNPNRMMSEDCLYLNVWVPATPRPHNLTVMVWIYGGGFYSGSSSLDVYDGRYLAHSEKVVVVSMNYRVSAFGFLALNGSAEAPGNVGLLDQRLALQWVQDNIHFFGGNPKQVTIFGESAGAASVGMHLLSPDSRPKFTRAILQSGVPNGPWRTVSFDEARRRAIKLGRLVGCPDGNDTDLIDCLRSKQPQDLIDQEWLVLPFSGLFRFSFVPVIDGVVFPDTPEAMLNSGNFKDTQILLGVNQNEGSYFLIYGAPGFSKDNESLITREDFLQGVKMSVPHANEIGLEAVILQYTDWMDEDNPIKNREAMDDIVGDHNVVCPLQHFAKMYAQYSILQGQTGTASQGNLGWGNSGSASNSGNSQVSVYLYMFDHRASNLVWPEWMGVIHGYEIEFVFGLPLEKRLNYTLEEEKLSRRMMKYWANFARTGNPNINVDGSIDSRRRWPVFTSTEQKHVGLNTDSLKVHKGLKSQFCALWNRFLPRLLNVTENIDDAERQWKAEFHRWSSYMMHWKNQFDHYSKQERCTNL
eeAChE, sequence (O42275 24-633): as above

Compound	IC50 [1] [µM]	IC50 [2] [µM]	Ki (eeAChE) [µM]	ABTS Inhibition % ([3]; 0.0312 mg/mL) [%]	ABTS Inhibition % ([3]; 0.0625 mg/mL) [%]	ABTS Inhibition % ([3]; 0.125 mg/mL) [%]	ABTS Inhibition % ([3]; 0.25 mg/mL) [%]	Selectivity Index (SI) (AChE) [2]	ABTS Inhibition % ([3]; 0.5 mg/mL) [%]
COc1cc(/C=C/C(=O)/C=C/c2ccc[n+](Cc3ccccc3)c2)ccc1O [Compound 8f, 1-Benzyl-3-(1E,4E)-5–(4-hydroxy-3-methoxyphenyl)-3-oxopenta-1,4-dien-1-yl)pyridin-1-ium bromide]	3.5 ± 0.095	0.017 ± 0.00017	0.016 ± 2.2e-05	7.7 ± 0.97	15.8 ± 0.18	25.4 ± 0.57	39.3 ± 0.23	–	–
COc1cc(/C=C/C(=O)/C=C/c2cc[n+](Cc3ccccc3)cc2)ccc1O [Compound 7f, 1-Benzyl-4-(1E,4E)-5–(4-hydroxy-3-methoxyphenyl)-3-oxopenta-1,4-dien-1-yl)pyridin-1-ium bromide]	–	0.0075	0.006 ± 3.6e-05	5.9 ± 0.47	13.7 ± 0.50	23.7 ± 0.51	35.5 ± 0.93	55	55.3 ± 1.42
COc1cc(/C=C/C(=O)/C=C/c2ccc[n+](Cc3ccc(F)cc3)c2)ccc1O [8 g, 1–(4-Fluorobenzyl)-3-(1E,4E)-5–(4-hydroxy-3-methoxyphenyl)-3-oxopenta-1,4-dien-1-yl)pyridin-1-ium bromide]	1.2 ± 0.097	0.016 ± 0.00024	0.01 ± 2.5e-05	6.1 ± 0.71	13.7 ± 0.52	24.7 ± 0.51	39.5 ± 0.38	79	–
O=C(/C=C/c1ccccc1)/C=C/c1cc[n+](Cc2ccc(F)cc2)cc1 [Compound 7b]	1.07 ± 0.08	0.052 ± 0.00018	0.056 ± 1.6e-05	0.5 ± 0.47	1.4 ± 0.07	3.3 ± 0.10	6.2 ± 0.50	21	7.1 ± 0.59
COc1cc(/C=C/C(=O)/C=C/c2cc[n+](Cc3ccc(F)cc3)cc2)ccc1O [7 g, 1–(4-Fluorobenzyl)-4-(1E,4E)-5–(4-hydroxy-3-methoxyphenyl)-3-oxopenta-1,4-dien-1-yl)pyridin-1-ium bromide]	1.04 ± 0.081	0.016 ± 0.00018	0.006 ± 3.1e-05	6.1 ± 0.82	13.9 ± 0.68	22.5 ± 0.77	30.2 ± 1.86	65	52.1 ± 1.58
